These results are taken from US8557796B2, “Substituted 1-oxa-2,8-diaza-spiro [4,5] dec-2-ene derivatives and related treatment methods” (Gruenenthal GmbH, priority 2001, dated 2013).

The inhibition is the drop in the measured response relative to a control, in per cent. Read a low inhibition as a weak effect.

The target of the assay is T1, NA transporter (Rattus norvegicus, UniProt Q9WTR4).
T1 construct: synaptosomes from rat brain regions were freshly isolated; from tissue; host or cells: P2 synaptosome fraction from hypothalamus of male rat brain
T1 sequence (Q9WTR4 1-597): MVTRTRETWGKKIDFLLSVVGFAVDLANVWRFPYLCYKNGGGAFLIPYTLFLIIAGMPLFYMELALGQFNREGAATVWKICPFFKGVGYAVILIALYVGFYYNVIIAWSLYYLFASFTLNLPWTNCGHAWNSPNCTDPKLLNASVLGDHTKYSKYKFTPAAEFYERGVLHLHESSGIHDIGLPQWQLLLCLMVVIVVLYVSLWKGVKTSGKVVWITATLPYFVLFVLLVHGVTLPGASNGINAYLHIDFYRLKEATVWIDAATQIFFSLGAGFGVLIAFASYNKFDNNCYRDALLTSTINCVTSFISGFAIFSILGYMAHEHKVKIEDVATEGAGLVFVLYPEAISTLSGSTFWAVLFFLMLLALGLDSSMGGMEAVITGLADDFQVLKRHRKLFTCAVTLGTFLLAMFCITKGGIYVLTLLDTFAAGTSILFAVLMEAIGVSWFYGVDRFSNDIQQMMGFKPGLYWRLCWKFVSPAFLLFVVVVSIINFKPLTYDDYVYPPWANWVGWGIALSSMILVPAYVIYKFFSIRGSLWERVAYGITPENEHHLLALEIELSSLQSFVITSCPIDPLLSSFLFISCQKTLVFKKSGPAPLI
As to the kind of experiment: Noradrenalin uptake inhibition (NA-uptake) in synaptosomes. In kind it is biochemical. The note with it: rat hypothalamus synaptosomes. The text has this: Tests on Noradrenalin Uptake Inhibition (NA-Uptake Inhibition)
In order to be able to carry out these in vitro studies, synaptosomes from rat brain regions were freshly isolated.
In turn, `CN(C)S(=O)(=O)N1CCC2(CC1)CC(C(=O)N1CCN(Cc3ccc(C(C)(C)C)cc3)CC1)=NO2` [Example 189, 3-[4-(4-tert-butyl-benzyl)-piperazine-1-carbonyl]-1-oxa-2,8-diaza-spiro[4,5]dec-2-ene-8-sulphonic acid dimethylamide] gave an inhibition at 10 µM of 45%.
For the molecule `O=C(OCc1ccccc1)N1CCN(C(=O)C2=NOC3(CCN(S(=O)(=O)c4ccc(F)cc4)CC3)C2)CC1` [Example 143], the “NA-uptake, 10 μM, % inhibition” value was found to be 47%.
Molecule `O=C(C1=NOC2(CCN(S(=O)(=O)Cc3ccccc3)CC2)C1)N1CCN(c2ccccn2)CC1` [Example 134, (8-phenylmethanesulphonyl-1-oxa-2,8-diaza-spiro[4,5]dec-2-en-3-yl)-(4-pyridin-2-yl-piperazin-1-yl)-methanone] showed an inhibition at 10 µM of 51%.
On the same count and under the same terms, in the case of `O=C(NCC1CC1)C1=NOC2(CCN(C(=O)c3ccc(OC(F)(F)F)cc3)CC2)C1` [Example 117, 8-(4-trifluoromethoxy-benzoyl)-1-oxa-2,8-diaza-spiro[4,5]dec-2-ene-3-carboxylic acid cyclopropylmethyl-amide] it was 46%.
Still for that read-out and setting: in the case of `CC(NC(=O)C1=NOC2(CCN(S(=O)(=O)c3ccc(F)cc3)CC2)C1)c1ccc([N+](=O)[O-])cc1` (stereo not drawn) [Example 213, 8-(4-fluoro-benzenesulphonyl)-1-oxa-2,8-diaza-spiro[4,5]dec-2-ene-3-carboxylic acid [1-(4-nitro-phenyl)-ethyl]-amide] it was 46%.
On the same count and under the same terms, in the case of `O=C(NC1CCCC1OCc1ccccc1)C1=NOC2(CCN(S(=O)(=O)c3cccc(C(F)(F)F)c3)CC2)C1` (stereo not drawn) [Example 201, 8-(3-trifluoromethyl-benzenesulphonyl)-1-oxa-2,8-diaza-spiro[4,5]dec-2-ene-3-carboxylic acid (2-benzyloxy-cyclopentyl)-amide] it was 58%.
For the molecule `Cc1ccccc1N1CCN(C(=O)C2=NOC3(CCN(S(=O)(=O)Cc4ccccc4)CC3)C2)CC1` [Example 133, (8-phenylmethanesulphonyl-1-oxa-2,8-diaza-spiro[4,5]dec-2-en-3-yl)-(4-o-tolyl-piperazin-l-yl)-methanone], the “NA-uptake, 10 μM, % inhibition” value is on record as 48%.
`O=C(NCCc1ccccc1)C1=NOC2(CCN(S(=O)(=O)Cc3ccccc3)CC2)C1` [Example 12, 8-phenylmethanesulphonyl-1-oxa-2,8-diaza-spiro[4,5]dec-2-ene-3-carboxylic acid phenethyl-amide] yielded an inhibition at 10 µM of 54%.
As for `O=C(C1=NOC2(CCN(S(=O)(=O)c3cccc(C(F)(F)F)c3)CC2)C1)N1CCC(Cc2ccccc2)CC1` [Example 211, (4-benzyl-piperidin-l-yl)-[8-(3-trifluoromethyl-benzene-sulphonyl)-1-oxa-2,8-diaza-spiro[4,5]dec-2-en-3-yl]-methanone], the “NA-uptake, 10 μM, % inhibition” value is given as 49%.
`CC(C)CC(NC(=O)C1=NOC2(CCN(S(=O)(=O)c3cccc(C(F)(F)F)c3)CC2)C1)C(=O)OC(C)(C)C` (stereo not drawn) [Example 214, 4-methyl-2-{[8-(3-trifluoromethyl-benzenesulphonyl)-1-oxa-2,8-diaza-spiro[4,5]dec-2-ene-3-carbonyl]-amino}-pentanoic acid tert-butyl ester]: testing at 10 µM gave an inhibition of 45%.
On the same count and under the same terms, under `CC(Oc1ccccc1)C(=O)N1CCC2(CC1)CC(C(=O)NCC1CC1)=NO2` (stereo not drawn) [Example 123, 8-(2-phenoxy-propionyl)-1-oxa-2,8-diaza-spiro[4,5]dec-2-ene-3-carboxylic acid cyclopropylmethyl-amide] stands 42%; under `CC(C)CNC(=O)C1=NOC2(CCN(C(=O)c3cccc4ccccc34)CC2)C1` [Example 178, 8-(naphthalene-1-carbonyl)-1-oxa-2,8-diaza-spiro[4,5]dec-2-ene-3-carboxylic acid isobutyl-amide], 51%.
The same measure, in the same setting: under `COC(=O)CCC(=O)N1CCC2(CC1)CC(C(=O)NCc1cccs1)=NO2` [Example 114, 4-oxo-4-{3-[(thiophen-2-ylmethyl)-carbamoyl]-1-oxa-2,8-diaza-spiro[4,5]dec-2-ene-8-yl}-butyric acid methyl ester] stands 42%; under `O=C(NCC1CC1)C1=NOC2(CCN(C(=O)CCCOc3ccccc3)CC2)C1` [Example 118, 8-(4-phenoxy-butyryl)-1-oxa-2,8-diaza-spiro[4,5]dec-2-ene-3-carboxylic acid cyclopropylmethyl-amide], 46%.
With `O=C(NCc1ccccc1F)C1=NOC2(CCN(S(=O)(=O)c3ccc(F)cc3)CC2)C1` [Example 207, 8-(4-fluoro-benzenesulphonyl)-1-oxa-2,8-diaza-spiro[4,5]dec-2-ene-3-carboxylic acid 2 fluorobenzylamide], 10 µM produced 50% inhibition.
`C=C(C)CN(CC)C(=O)C1=NOC2(CCN(S(=O)(=O)c3ccc(OC(F)(F)F)cc3)CC2)C1` [Example 103, 8-(4-trifluoromethoxy-benzenesulphonyl)-1-oxa-2,8-diaza-spiro[4,5]dec-2-ene-3carboxylic acid ethyl-(2-methyl-allyl)-amide] registered an inhibition at 10 µM of 47%.
The molecule `CC(NC(=O)C1=NOC2(CCN(S(=O)(=O)c3ccc(Cl)s3)CC2)C1)c1cccc2c1OCCO2` (stereo not drawn) [Example 140, 8-(5-chloro-thiophene-2-sulphonyl)-1-oxa-2,8-diaza-spiro[4,5]dec-2-ene-3-carboxylic acid [1-(2,3-dihydro-benzo[1,4]dioxin-5-yl)-ethyl]-amide] came in with an inhibition at 10 µM of 83%.
In the case of `O=C(NCc1cccs1)C1=NOC2(CCN(C(=O)C=Cc3ccccc3)CC2)C1` [Example 106], the “NA-uptake, 10 μM, % inhibition” value amounted to 47%.
On to `O=C(NCc1cccs1)C1=NOC2(CCN(C(=O)c3cccc(Cl)c3F)CC2)C1` [Example 146, 8-(3-chloro-2-fluorobenzoyl)-1-oxa-2,8-diaza-spiro[4,5]dec-2-ene-3-carboxylic acid (thiophen-2-ylmethyl)-amide], for which 10 µM produced 61% inhibition.
Molecule `O=C(NCC1CC1)C1=NOC2(CCN(C(=O)c3cc(C(F)(F)F)ccc3Cl)CC2)C1` [Example 120, 8-(2-chloro-5-trifluoromethyl-benzoyl)-1-oxa-2,8-diaza-spiro(4,5]dec-2-ene-3-carboxylic acid cyclopropylmethyl-amide] gave an inhibition at 10 µM of 40%.
Still for that read-out and setting: under `CC(NC(=O)C1=NOC2(CCN(S(=O)(=O)c3ccc(F)cc3)CC2)C1)C(=O)Nc1ccc2ccccc2c1` (stereo not drawn) [Example 198, 8-(4-fluoro-benzenesulphonyl)-1-oxa-2,8-diaza-spiro[4,5]dec-2-ene-3-carboxylic acid [1-(naphthalen-2-ylcarbamoyl)ethyl]-amide] stands 52%.
In the case of `O=C(NCC1CCCO1)C1=NOC2(CCN(C(=O)c3ccc(F)cc3F)CC2)C1` (stereo not drawn) [Example 112], the “NA-uptake, 10 μM, % inhibition” value came out at 45%.
`O=C(NCc1cccs1)C1=NOC2(CCN(S(=O)(=O)c3ccc([N+](=O)[O-])cc3)CC2)C1` [Example 38, 8-(4-nitro-benzenesulphonyl)-1-oxa-2,8-diaza-spiro[4,5]dec-2-ene-3-carboxylic acid (thiophen-2-ylmethyl)-amide] had an inhibition at 10 µM of 44%.
In the case of `COc1cccc(CCNC(=O)C2=NOC3(CCN(S(=O)(=O)c4ccc(F)cc4)CC3)C2)c1` [Example 124, 8-(4-fluoro-benzenesulphonyl)-1-oxa-2,8-diaza-spiro[4,5]dec-2-ene-3-carboxylic acid [2-(3-methoxy-phenyl)-ethyl]-amide], 10 µM produced 49% inhibition.
Still for that read-out and setting: under `Cc1onc(-c2c(Cl)cccc2Cl)c1C(=O)N1CCC2(CC1)CC(C(=O)NCc1cccs1)=NO2` [Example 197, 8-[3-(2,6-dichloro-phenyl)-5-methyl-isoxazole-4-carbonyl]-1-oxa-2,8-diaza-spiro[4,5]dec-2-ene-3-carboxylic acid (thiophen-2-ylmethyl)-amide] stands 41%.
Take `CCOC(=O)CCNC(=O)C1=NOC2(CCN(S(=O)(=O)c3ccccc3Cl)CC2)C1` [Example 116, 3-{[8-(2-chloro-benzenesulphonyl)-1-oxa-2,8-diaza-spiro[4,5]dec-2-ene-3-carbonyl]-amino}-propionic acid ethyl ester]: the inhibition at 10 µM was found to be 60%.
The same measure, in the same setting: under `O=C(NCc1cccs1)C1=NOC2(CCN(C(=O)COc3cccc(Cl)c3)CC2)C1` [Example 96, 8-[2-(3-chloro-phenoxy)-acetyl]-1-oxa-2,8-diaza-spiro[4,5]dec-2-ene-3-carboxylic acid (thiophen-2-ylmethyl)-amide] stands 49%; under `O=C(NCc1ccccc1)C1=NOC2(CCN(C(=O)c3ccncc3)CC2)C1` [Example 102, 8-(pyridine-4-carbonyl)-1-oxa-2,8-diaza-spiro[4,5]dec-2-ene-3-carboxylic acid benzylamide], 48%; under `O=C(NCc1cccs1)C1=NOC2(CCN(C(=O)c3ccc(F)c(Cl)c3)CC2)C1` [Example 184, 8-(3-chloro-4-fluorobenzoyl)-1-oxa-2,8-diaza-spiro[4,5]dec-2-ene-3-carboxylic acid (thiophen-2-ylmethyl)-amide], 62%.
Molecule `COc1ccc(S(=O)(=O)N2CCC3(CC2)CC(C(=O)NC2CCCC2OCc2ccccc2)=NO3)cc1` (stereo not drawn) [Example 169, 8-(4-methoxy-benzenesulphonyl)-1-oxa-2,8-diaza-spiro[4,5]dec-2-ene-3-carboxylic acid (2-benzyloxy-cyclopentyl)-amide] showed an inhibition at 10 µM of 64%.
The same measure, in the same setting: under `CSc1ncccc1C(=O)N1CCC2(CC1)CC(C(=O)NCC(C)C)=NO2` [Example 125, 8-(2-methylsulphanyl-pyridine-3-carbonyl)-1-oxa-2,8-diaza-spiro[4,5]dec-2-ene-3-carboxylic acid isobutyl-amide] stands 40%.
With `O=C(NCCc1cccc(C(F)(F)F)c1)C1=NOC2(CCN(S(=O)(=O)c3ccc(F)cc3)CC2)C1` [Example 196], the “NA-uptake, 10 μM, % inhibition” value turned out to be 40%.
On to `O=C(C1=NOC2(CCN(S(=O)(=O)Cc3ccccc3)CC2)C1)N1CC=C(c2ccc(F)cc2)CC1` [Example 215, [4-(4-fluoro-phenyl)-3,6-dihydro-2H-pyridin-1-yl]-(8-phenylmethanesulphonyl-1-oxa-2,8-diaza-spiro[4,5]dec-2-en-3-yl)-methanone], for which the inhibition at 10 µM is 42%.
